Experiment [1] has as its system MDA-MB-231 cells. The experiment can be described thus: WST-1 cell viability assay. It is filed as cell-based. The settings on record: co-treatment of 10 μM Compound 5A. The protocol:
(§1) Compound Compound 9A was tested for the ability to inhibit the proliferation of Mia-Paca-2 pancreatic cancer cells. Mia-Paca-2 and MDA-MB-231 cells were seeded into the wells of a 96 well tissue culture plate in complete medium (10% fetal calf serum) and incubated overnight at 37° C./5% CO2). The medium was exchanged for fresh medium containing varying concentrations of Compound 9A and the plate was incubated for 72 hours at 37° C./5% CO2. The viability of cells at the end of this incubation was assessed with the WST-1 reagent. To 10 ml of warm (37° C.) complete medium, 1 ml WST-1 reagent was added. The medium from the wells of the plate with the Mia-Paca-2 cells was removed and replaced with 100 μL of the WST-1 reagent in complete medium. The plate was incubated at 37 37° C./5% CO2. At timed intervals the absorbance at 450 nm was determined for each well in a UVNis plate reader. For each well the slope of the plot of the absorbance 450 nm vs time was determined. The readings were normalized to that of the wells for the untreated control and a dose-response curve was plotted. A fit to the data was made from a four parameter, variable slope program (GraphPad Prism) and the IC50 was determined.
The TNBC cell line MDA-MB-231 express high levels of Mcl-1 and USP9X in addition to Bcl-2 and Bcl-xL. MDA-MB-231 cells were treated with ABT737 for 72 hours at varying concentrations and underwent western blot analysis.
In general terms: Tetrazolium assays rely on reduction of a dye to a coloured formazan, in cell work by metabolically active cells.

The test system of experiment [2] is RKO colon cells. Kind of experiment: WST-1 cell viability assay. The class given is cell-based. The protocol: as §1
(§2) The same procedures were also applied to the compounds Compound 7A, Compound 6A, and Compound 8A to test their inhibitory activities against RKO colon, Mia-Paca-2 pancreatic and BT-549 cancer cells.

Experiment [3] concerns Mia-Paca-2 pancreatic cancer cells. The experiment can be described thus: WST-1 cell viability assay. The class given is cell-based. The conditions noted are these: Mia-Paca-2 pancreatic cells. As for the experimental part: as §1, §2
Experiment [4] concerns 66 cancer cell lines. The experiment can be described thus: ONCOLINES Profiler, whole panel. The class given is cell-based. The text has this: The sensitivities of multiple cancer cells can be determined by screening the compounds on a cancer cell line panel, such as an ONCOLINES™ Profiler (Netherlands Translational Research Center) assayed with various tumor cell lines. For more information on ONCOLINES™ methods, see https://www.oncolines.com/oncolines/oncolines-explained-facts/. […] For example, Compound 7A inhibited the proliferation of 57 of the 66 cell lines being tested. […] “A tumor cell line sensitive to the compounds” is referred to that the proliferation of a tumor cell line, when contacted with the compounds, is inhibited by at least 50%, at least 60%, at least 70%, at least 80%, at least 85%, at least 90%, at least 91%, at least 92%, at least 93%, at least 94%, at least 95%, at least 96%, at least 97%, at least 98%, at least 99%, or 100%.
(§3) The compounds were profiled on an ONCOLINES™ Profiler (Netherlands Translational Research Center) assayed with 66 cancer cell lines to determine if they were capable of inhibiting the proliferation of these cancer cells.
(§4) To further evaluate potency of the compounds, they were compared with the USP9X inhibitor WP 1130 by screening both the compounds and WP1130 on a 66-cancer cell line panel ONCOLINES™ Profiler.

Experiment [5] has as its system U937 cells. The experiment can be described thus: WST-1 cell viability assay. The class given is cell-based. The conditions noted are these: for IC50: Homo sapiens, U-937, 72-hour treatment. The protocol:
as §1
The effect of Compound 7A on U937 cells was assessed using the same experiment described in the Inhibitory Activities against the Proliferation of Mia-Paca-2 and Other Cancer Cells section above. In response to treatment with Compound 7A, proliferation of U937 leukemia cells was inhibited and induced apoptosis was obsessed by trypan blue staining.
U937 cells were treated with the Bcl-2/Bcl-xL inhibitor ABT737 72 hours at varying concentrations and underwent western blot analysis.

The test system of experiment [6] is BT-549. Kind of experiment: ONCOLINES Profiler proliferation. It is filed as cell-based, human.
From the text: as §3, §4

Experiment [7] has as its system CCRF-CEM. Kind of experiment: ONCOLINES Profiler proliferation. The conditions noted are these: for IC50: acute lymphoblastic leukemia. The class given is cell-based.
From the text: as §3, §4

Experiment [8] concerns H82. Kind of experiment: ONCOLINES Profiler proliferation. The class given is cell-based.
From the text: as §3, §4

For experiment [9], the system named is A-172. The experiment can be described thus: ONCOLINES Profiler proliferation. It is filed as cell-based.
From the text: as §3, §4

Experiment [10] has as its system A549. Kind of experiment: ONCOLINES Profiler proliferation. The class given is cell-based.
From the text: as §3, §4

Experiment [11] relates to Hs 57BT. Kind of experiment: ONCOLINES Profiler proliferation. The class given is cell-based. The conditions noted are these: for IC50: Hs 57BT (Hs578T), breast carcinoma.
From the text: as §3, §4

Experiment [12] concerns DU 145. The experiment can be described thus: ONCOLINES Profiler proliferation. It is filed as cell-based.
From the text: as §3, §4

The subject of experiment [13] is MOLT-4. Kind of experiment: ONCOLINES Profiler proliferation. It is filed as cell-based.
From the text: as §3, §4

Experiment [14] deals with RPMI-7951. Kind of experiment: ONCOLINES Profiler proliferation. The class given is cell-based.
From the text: as §3, §4

Experiment [15] deals with LoVo. The experiment can be described thus: ONCOLINES Profiler proliferation. The class given is cell-based. The conditions noted are these: for IC50: colorectal adenocarcinoma.
From the text: as §3, §4

The test system of experiment [16] is RKO. Kind of experiment: ONCOLINES Profiler proliferation. The class given is cell-based. The conditions noted are these: for IC50: colon carcinoma.
From the text: as §3, §4

The test system of experiment [17] is BT-20. The experiment can be described thus: ONCOLINES Profiler proliferation. The class given is cell-based.
From the text: as §3, §4

Experiment [18] concerns BT-549 cancer cells. The experiment can be described thus: WST-1 cell viability assay. The settings on record: BT-549 cells. The class given is cell-based, human. As for the experimental part:
as §1, §2

SMILES strings stand for the structures. Read-outs that look alike come from different tables or passages of the source.

`CN1CCOc2ccc(cc2)C(=O)NCc2cccc(c2)C(=O)N[C@@H](CC(C)(C)C)C(=O)Nc2ccc(cc2)CCN(C)C(=O)CC(C)(C)CC1=O` [Compound 5A]: in [1], the “enhancement in ABT737's potency / sensitivity of cells to ABT737” value came out at 5 fold.

As for `CN1CCOc2ccc(cc2)C(=O)NCc2ccc(F)c(c2)C(=O)N[C@@H](CC(C)(C)C)C(=O)Nc2ccc(cc2)CCN(C)C(=O)CC(C)(C)CC1=O` [Compound 7A], the “cell viability” value in experiment [2], in experiment [3] and in experiment [18] was “significant decreases” each time. For the same molecule, the “cancer cell lines sensitive / proliferation inhibited, of 66” value in experiment [4] (66 cell lines tested) worked out at 57. In addition, the result in [4] (in 3 of 66 cell lines, high Bcl-xL) was inactive. In addition, in experiment [4] (in 12 of 66 cell lines), the “fold more potent than WP 1130” value was “about 4 fold”. The IC50 in experiment [5] (read-out: IC50 for the inhibition of U937) is 270 nM; in experiment [5] (U937 cells, single agent, read-out: IC50, cell viability), 270 nM; in experiment [6] (BT-549, breast ductal carcinoma) it was 199 nM; in experiment [6] (Homo sapiens, BT-549, BT-549, breast ductal carcinoma), 200 nM; in experiment [7] (Homo sapiens) it was 247 nM; in experiment [7], 250 nM. Moreover, the IC50 in experiment [8] (Homo sapiens, NCI-H82, H82, small cell lung) turned out to be 1100 nM; in experiment [9] (A-172, glioblastoma) it was 1100 nM; in experiment [9] (Homo sapiens, A 172, A-172, glioblastoma) it was 1070 nM; in experiment [10] (Homo sapiens, A549, lung) it was 3000 nM; in experiment [11] (Homo sapiens, Hs-578T), 1410 nM; in experiment [11], 1400 nM. The IC50 in [12] (DU 145, prostate carcinoma) is 2000 nM; in experiment [12] (Homo sapiens, DU-145, DU 145, prostate carcinoma) it was 2010 nM; in experiment [13] (Homo sapiens, MOLT-4, MOLT-4, acute lymphoblastic leukemia), 594 nM; in [13] (MOLT-4, acute lymphoblastic leukemia) it was 590 nM; in [14] (Homo sapiens, RPMI-7951, RPMI-7951, malignant melanoma) it was 1200 nM; in experiment [14] (RPMI-7951, malignant melanoma) it was 1200 nM. Also, the 50% inhibitory concentration (IC50) stood at 635 nM in experiment [15] (Homo sapiens); 640 nM in experiment [15]; 880 nM in experiment [16] (Homo sapiens); 683 nM in [16]; 1400 nM in [17] (BT-20, breast carcinoma); 1390 nM in experiment [17] (Homo sapiens, BT-20, BT-20, breast carcinoma). Besides, the “enhancement in ABT737's potency / sensitivity of cells to ABT737” value in experiment [5] (U937 cells, co-treatment of 0.5 μM Compound 7A) is reported as 57 fold. The “cell viability decreased to” value in experiment [5] (U937 cells, when Mcl-1 level decreased by 50%) came out at 0. Moreover, the “IC50 Ratio WP1130/Compound 7A” value is recorded as 27.0 in experiment [6] (BT-549); 17.6 in [7]; 6.0 in [8] (H82); 5.1 in experiment [9] (A-172); 4.7 in [10] (A549); 4.5 in [11] (Hs578T). For the same molecule, the “IC50 Ratio WP1130/Compound 7A” value in experiment [12] (DU145) is 4.8; in experiment [13] (MOLT-4), 6.8; in experiment [14] (RPMI7951), 3.5; in experiment [15], 8.6; in experiment [16] it was 4.9; in experiment [17] (BT-20), 3.6.

Broadly, the IC50 is the concentration at which inhibition is half-maximal.
